Measurements reported in publication PMC5847526, “Inhibition of neuronal FLT3 receptor tyrosine kinase alleviates peripheral neuropathic pain in mice” (Nature Communications, 2018).

Legend:
[1] = target: PRLR-JAK1 (Homo sapiens, UniProt P16471); experiment: cell-based; parameters: PathHunter eXpress functional assay (DiscoverX tkMAX), inhibition of reference ligand response; conditions: read-out: % Inhibition of reference binding (Table 3)
[2] = target: T1, TrkA-P75 (Homo sapiens, UniProt P04629); experiment: cell-based; parameters: PathHunter eXpress functional assay (DiscoverX tkMAX), inhibition of reference ligand response; conditions: read-out: % Inhibition of reference binding (Table 3)
T1 construct: gene NTRK1

[3] = target: T2, CHK1 (Homo sapiens, UniProt O14757); experiment: biochemical; parameters: ExpresS Diversity kinase profile (Eurofins Cerep P10), per cent inhibition; conditions: read-out: Inhibition of reference binding (Table 4)
T2 construct: gene CHEK1

[4] = target: PAK4 (Homo sapiens, UniProt O96013); experiment: biochemical; parameters: ExpresS Diversity kinase profile (Eurofins Cerep P10), per cent inhibition; conditions: read-out: Inhibition of reference binding (Table 4)
[5] = target: T3, c-KIT (Homo sapiens, UniProt P10721); experiment: biochemical; parameters: ExpresS Diversity kinase profile (Eurofins Cerep P10), per cent inhibition; conditions: read-out: Inhibition of reference binding (Table 4)
[6] = target: T4, AurA/Aur2 kinase (Homo sapiens, UniProt O14965); experiment: biochemical; parameters: ExpresS Diversity kinase profile (Eurofins Cerep P10), per cent inhibition; conditions: read-out: Inhibition of reference binding (Table 4)
T4 construct: gene AURKA

[7] = target: Interleukin-1 receptor-associated kinase 4 (IRAK4) (Homo sapiens, UniProt Q9NWZ3); experiment: kinase selectivity panel, inhibition of staurosporine binding at a single concentration ([…])
[8] = target: T5, TrkB-P75 (Homo sapiens, UniProt Q16620); experiment: cell-based; parameters: PathHunter eXpress functional assay (DiscoverX tkMAX), inhibition of reference ligand response; conditions: read-out: % Inhibition of reference binding (Table 3)
T5 construct: gene NTRK2

[9] = target: ErbB2-ErbB3 (Homo sapiens, UniProt P04626+P21860); experiment: cell-based; parameters: PathHunter eXpress functional assay (DiscoverX tkMAX), inhibition of reference ligand response; conditions: read-out: % Inhibition of reference binding (Table 3)
[10] = target: T6, fms-like tyrosine kinase 3 receptor (FLT3) (Homo sapiens, UniProt P36888); experiment: trFRET inhibition of Red-FL binding to SNAP-FLT3 on HEK293 cells; FL-induced FLT3 phosphorylation in RS4-11 cells (IC50 […]); assay type: cell-based
T6 construct: SNAP-FLT3 (Lumi4-Tb labelled) in HEK293 cells; endogenous FLT3 in RS4-11 cells

[11] = target: DDR1 (Homo sapiens, UniProt Q08345); experiment: cell-based; parameters: PathHunter eXpress functional assay (DiscoverX tkMAX), inhibition of reference ligand response; conditions: read-out: % Inhibition of reference binding (Table 3)
[12] = target: FLT4 (Homo sapiens, UniProt P35916); experiment: cell-based; parameters: PathHunter eXpress functional assay (DiscoverX tkMAX), inhibition of reference ligand response; conditions: read-out: % Inhibition of reference binding (Table 3)
[13] = target: ErbB4 (Homo sapiens, UniProt Q15303); experiment: cell-based; parameters: PathHunter eXpress functional assay (DiscoverX tkMAX), inhibition of reference ligand response; conditions: read-out: % Inhibition of reference binding (Table 3)
[14] = target: EphB4 (Homo sapiens, UniProt P54760); experiment: cell-based; parameters: PathHunter eXpress functional assay (DiscoverX tkMAX), inhibition of reference ligand response; conditions: read-out: % Inhibition of reference binding (Table 3)
[15] = target: EphB2 (Homo sapiens, UniProt P29323); experiment: cell-based; parameters: PathHunter eXpress functional assay (DiscoverX tkMAX), inhibition of reference ligand response; conditions: read-out: % Inhibition of reference binding (Table 3)
[16] = target: T7, ErbB1 (Homo sapiens, UniProt P00533); experiment: cell-based; parameters: PathHunter eXpress functional assay (DiscoverX tkMAX), inhibition of reference ligand response; conditions: read-out: % Inhibition of reference binding (Table 3)
T7 construct: gene EGFR

[17] = target: PDGFRb (Homo sapiens, UniProt P09619); experiment: cell-based; parameters: PathHunter eXpress functional assay (DiscoverX tkMAX), inhibition of reference ligand response; conditions: read-out: % Inhibition of reference binding (Table 3)
[18] = target: IGF1R (Homo sapiens, UniProt P08069); experiment: cell-based; parameters: PathHunter eXpress functional assay (DiscoverX tkMAX), inhibition of reference ligand response; conditions: read-out: % Inhibition of reference binding (Table 3)
[19] = target: EphA7 (Homo sapiens, UniProt Q15375); experiment: cell-based; parameters: PathHunter eXpress functional assay (DiscoverX tkMAX), inhibition of reference ligand response; conditions: read-out: % Inhibition of reference binding (Table 3)
[20] = target: T3, c-KIT; experiment: cell-based; parameters: PathHunter eXpress functional assay (DiscoverX tkMAX), inhibition of reference ligand response; conditions: read-out: % Inhibition of reference binding (Table 3)
[21] = target: EphA5 (Homo sapiens, UniProt P54756); experiment: cell-based; parameters: PathHunter eXpress functional assay (DiscoverX tkMAX), inhibition of reference ligand response; conditions: read-out: % Inhibition of reference binding (Table 3)
[22] = target: PDGFRa (Homo sapiens, UniProt P16234); experiment: cell-based; parameters: PathHunter eXpress functional assay (DiscoverX tkMAX), inhibition of reference ligand response; conditions: read-out: % Inhibition of reference binding (Table 3)
[23] = target: T8, INSRb (Homo sapiens, UniProt P06213); experiment: cell-based; parameters: PathHunter eXpress functional assay (DiscoverX tkMAX), inhibition of reference ligand response; conditions: read-out: % Inhibition of reference binding (Table 3)
T8 construct: gene INSR; isoform b

[24] = target: KDR (Homo sapiens, UniProt P35968); experiment: cell-based; parameters: PathHunter eXpress functional assay (DiscoverX tkMAX), inhibition of reference ligand response; conditions: read-out: % Inhibition of reference binding (Table 3)
[25] = target: EphB3 (Homo sapiens, UniProt P54753); experiment: cell-based; parameters: PathHunter eXpress functional assay (DiscoverX tkMAX), inhibition of reference ligand response; conditions: read-out: % Inhibition of reference binding (Table 3)
[26] = target: c-Ret-GFRα2 (Homo sapiens, UniProt P07949); experiment: cell-based; parameters: PathHunter eXpress functional assay (DiscoverX tkMAX), inhibition of reference ligand response; conditions: read-out: % Inhibition of reference binding (Table 3)
Sequence of c-Ret-GFRα2 (P07949 whole entry): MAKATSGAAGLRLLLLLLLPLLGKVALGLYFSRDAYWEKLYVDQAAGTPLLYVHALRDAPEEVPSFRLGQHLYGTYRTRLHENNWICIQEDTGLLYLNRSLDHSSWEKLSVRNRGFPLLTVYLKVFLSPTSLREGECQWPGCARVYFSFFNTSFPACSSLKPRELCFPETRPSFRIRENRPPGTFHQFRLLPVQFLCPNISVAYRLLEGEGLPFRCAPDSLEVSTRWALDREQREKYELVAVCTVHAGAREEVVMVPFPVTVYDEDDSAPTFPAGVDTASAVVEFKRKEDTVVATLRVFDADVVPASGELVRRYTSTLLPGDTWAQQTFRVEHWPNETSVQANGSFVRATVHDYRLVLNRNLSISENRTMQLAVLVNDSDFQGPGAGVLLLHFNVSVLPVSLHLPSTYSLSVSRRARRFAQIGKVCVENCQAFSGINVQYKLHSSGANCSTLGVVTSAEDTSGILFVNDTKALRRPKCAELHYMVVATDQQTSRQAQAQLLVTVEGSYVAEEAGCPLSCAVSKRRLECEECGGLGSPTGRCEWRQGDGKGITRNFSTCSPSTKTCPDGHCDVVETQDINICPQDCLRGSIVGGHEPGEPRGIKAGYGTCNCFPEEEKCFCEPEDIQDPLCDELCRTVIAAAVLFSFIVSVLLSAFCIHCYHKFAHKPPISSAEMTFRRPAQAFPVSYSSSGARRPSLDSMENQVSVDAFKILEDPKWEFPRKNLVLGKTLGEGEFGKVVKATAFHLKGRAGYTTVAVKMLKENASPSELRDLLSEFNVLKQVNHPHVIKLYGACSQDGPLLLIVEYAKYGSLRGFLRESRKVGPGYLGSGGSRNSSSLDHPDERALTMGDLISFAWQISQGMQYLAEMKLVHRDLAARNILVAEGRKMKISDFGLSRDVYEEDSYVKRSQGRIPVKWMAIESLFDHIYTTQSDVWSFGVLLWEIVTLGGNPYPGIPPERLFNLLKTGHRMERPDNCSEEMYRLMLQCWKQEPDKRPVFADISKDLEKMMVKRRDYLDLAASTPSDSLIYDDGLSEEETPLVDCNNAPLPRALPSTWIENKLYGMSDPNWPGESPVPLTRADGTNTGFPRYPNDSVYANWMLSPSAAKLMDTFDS
Sequence of c-Ret-GFRα2 (O00451 whole entry partner): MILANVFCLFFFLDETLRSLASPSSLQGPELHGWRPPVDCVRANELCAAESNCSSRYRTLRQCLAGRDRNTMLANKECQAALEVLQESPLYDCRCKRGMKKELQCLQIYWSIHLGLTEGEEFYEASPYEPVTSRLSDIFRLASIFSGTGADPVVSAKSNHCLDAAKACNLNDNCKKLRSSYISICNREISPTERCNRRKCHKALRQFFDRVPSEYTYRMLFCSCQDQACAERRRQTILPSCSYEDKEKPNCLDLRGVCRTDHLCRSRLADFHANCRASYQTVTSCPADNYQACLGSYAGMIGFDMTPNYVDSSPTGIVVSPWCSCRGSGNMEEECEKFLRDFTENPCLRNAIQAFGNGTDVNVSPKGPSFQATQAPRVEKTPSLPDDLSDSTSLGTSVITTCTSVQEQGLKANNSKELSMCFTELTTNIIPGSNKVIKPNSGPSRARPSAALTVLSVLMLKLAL

T3 sequence (P10721 whole entry): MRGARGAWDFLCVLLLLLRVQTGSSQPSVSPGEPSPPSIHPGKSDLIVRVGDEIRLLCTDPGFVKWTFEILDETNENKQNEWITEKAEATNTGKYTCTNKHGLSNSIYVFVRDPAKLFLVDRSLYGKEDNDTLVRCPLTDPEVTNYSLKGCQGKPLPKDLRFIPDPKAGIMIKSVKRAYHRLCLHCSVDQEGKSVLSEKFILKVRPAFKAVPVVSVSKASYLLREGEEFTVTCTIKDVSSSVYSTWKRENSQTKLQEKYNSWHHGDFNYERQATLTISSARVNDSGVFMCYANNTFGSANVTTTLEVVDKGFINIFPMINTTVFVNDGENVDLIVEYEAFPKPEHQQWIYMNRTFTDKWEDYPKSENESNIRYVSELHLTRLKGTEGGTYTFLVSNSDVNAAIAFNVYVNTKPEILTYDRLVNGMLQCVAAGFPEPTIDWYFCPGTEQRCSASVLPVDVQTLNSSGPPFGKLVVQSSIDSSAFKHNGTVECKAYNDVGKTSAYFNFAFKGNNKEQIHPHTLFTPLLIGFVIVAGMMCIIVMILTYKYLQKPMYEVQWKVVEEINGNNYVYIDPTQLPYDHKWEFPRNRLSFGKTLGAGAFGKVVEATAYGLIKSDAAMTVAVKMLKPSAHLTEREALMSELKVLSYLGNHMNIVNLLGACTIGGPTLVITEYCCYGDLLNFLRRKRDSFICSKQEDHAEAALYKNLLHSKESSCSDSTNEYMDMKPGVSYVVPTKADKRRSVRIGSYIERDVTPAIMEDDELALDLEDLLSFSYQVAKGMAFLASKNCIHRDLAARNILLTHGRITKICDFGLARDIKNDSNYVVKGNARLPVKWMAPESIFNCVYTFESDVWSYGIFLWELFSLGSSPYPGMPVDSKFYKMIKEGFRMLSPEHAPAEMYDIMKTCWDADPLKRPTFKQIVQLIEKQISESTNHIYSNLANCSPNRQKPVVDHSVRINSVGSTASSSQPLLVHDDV
T8 sequence (P06213 whole entry, canonical isoform): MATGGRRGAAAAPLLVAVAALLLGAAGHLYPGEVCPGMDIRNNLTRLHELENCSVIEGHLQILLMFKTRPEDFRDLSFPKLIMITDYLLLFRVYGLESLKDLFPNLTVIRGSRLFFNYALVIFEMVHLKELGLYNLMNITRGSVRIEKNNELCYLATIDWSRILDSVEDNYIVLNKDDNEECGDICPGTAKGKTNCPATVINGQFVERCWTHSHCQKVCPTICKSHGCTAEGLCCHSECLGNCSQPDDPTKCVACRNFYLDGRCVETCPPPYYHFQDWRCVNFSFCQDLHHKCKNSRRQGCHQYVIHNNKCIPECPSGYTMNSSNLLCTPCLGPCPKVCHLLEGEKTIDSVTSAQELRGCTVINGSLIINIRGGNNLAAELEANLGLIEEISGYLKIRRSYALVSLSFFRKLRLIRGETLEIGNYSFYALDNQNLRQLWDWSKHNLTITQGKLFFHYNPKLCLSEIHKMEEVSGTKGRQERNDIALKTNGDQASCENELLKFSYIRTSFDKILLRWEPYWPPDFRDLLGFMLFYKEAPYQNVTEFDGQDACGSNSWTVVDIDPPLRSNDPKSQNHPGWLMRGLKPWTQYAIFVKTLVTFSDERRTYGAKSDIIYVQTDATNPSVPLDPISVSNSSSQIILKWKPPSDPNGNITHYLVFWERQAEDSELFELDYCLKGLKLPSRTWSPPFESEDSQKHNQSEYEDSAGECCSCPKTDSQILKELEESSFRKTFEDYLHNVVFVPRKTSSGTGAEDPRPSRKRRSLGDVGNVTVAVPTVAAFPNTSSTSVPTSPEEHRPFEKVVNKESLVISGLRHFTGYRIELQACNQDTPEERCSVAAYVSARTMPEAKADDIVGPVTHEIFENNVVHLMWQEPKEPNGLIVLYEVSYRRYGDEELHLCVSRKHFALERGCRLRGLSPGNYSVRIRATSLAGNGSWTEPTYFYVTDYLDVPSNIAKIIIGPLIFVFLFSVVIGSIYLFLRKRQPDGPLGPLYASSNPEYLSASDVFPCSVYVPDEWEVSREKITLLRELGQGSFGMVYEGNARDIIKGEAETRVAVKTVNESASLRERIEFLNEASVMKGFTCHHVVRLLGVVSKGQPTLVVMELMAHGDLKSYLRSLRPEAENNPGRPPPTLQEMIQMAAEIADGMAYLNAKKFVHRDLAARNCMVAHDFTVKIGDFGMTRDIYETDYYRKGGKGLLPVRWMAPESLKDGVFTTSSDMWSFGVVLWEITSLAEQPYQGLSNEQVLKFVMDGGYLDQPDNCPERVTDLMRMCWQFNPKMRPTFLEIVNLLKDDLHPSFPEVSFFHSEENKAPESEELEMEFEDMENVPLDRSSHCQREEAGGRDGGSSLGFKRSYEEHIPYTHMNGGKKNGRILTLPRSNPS
Sequence of Interleukin-1 receptor-associated kinase 4 (IRAK4) (Q9NWZ3 whole entry): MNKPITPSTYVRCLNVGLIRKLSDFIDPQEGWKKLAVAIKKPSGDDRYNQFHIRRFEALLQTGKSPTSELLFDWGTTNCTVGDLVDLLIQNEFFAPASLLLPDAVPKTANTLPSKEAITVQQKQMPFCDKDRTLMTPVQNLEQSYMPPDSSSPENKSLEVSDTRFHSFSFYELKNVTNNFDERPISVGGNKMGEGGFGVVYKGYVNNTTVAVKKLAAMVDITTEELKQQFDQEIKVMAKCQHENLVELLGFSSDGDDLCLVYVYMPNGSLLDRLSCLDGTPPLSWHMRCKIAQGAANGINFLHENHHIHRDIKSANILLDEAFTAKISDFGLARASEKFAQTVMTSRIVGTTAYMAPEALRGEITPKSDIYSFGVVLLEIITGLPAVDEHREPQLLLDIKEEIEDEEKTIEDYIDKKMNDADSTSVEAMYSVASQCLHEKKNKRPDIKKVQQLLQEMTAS
T2 sequence (O14757 whole entry): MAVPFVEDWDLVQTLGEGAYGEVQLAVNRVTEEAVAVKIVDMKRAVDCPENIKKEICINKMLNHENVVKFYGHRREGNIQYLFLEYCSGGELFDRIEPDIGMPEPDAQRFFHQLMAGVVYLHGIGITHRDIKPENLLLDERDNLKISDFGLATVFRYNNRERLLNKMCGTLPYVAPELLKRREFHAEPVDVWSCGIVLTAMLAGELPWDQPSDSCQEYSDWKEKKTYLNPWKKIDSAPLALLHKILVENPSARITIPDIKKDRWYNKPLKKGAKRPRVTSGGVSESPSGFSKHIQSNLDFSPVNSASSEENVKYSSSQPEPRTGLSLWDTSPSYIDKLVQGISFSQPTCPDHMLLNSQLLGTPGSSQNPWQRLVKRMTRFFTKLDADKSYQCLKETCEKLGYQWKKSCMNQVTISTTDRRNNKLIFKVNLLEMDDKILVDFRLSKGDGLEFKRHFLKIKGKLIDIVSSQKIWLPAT

inhibition at 10 µM [1]: 6.1%
inhibition at 10 µM [2]: 13.7%
inhibition at 10 µM [3]: -10%
inhibition at 10 µM [4]: 6%
inhibition at 10 µM [5]: -1%
inhibition at 10 µM [6]: -5%
inhibition at 10 µM [7]: 64%
inhibition at 10 µM [8]: -1.3%
inhibition at 10 µM [9]: 13.6%
IC50 [10]: 11 µM
inhibition at 10 µM [11]: -0.7%
inhibition at 10 µM [12]: 16.8%
inhibition at 10 µM [13]: -0.1%
inhibition at 10 µM [14]: 22.7%
inhibition at 10 µM [15]: 1.4%
inhibition at 10 µM [16]: 8.7%
inhibition at 10 µM [17]: 4.2%
inhibition at 10 µM [18]: 10.1%
inhibition at 10 µM [19]: 4.3%
inhibition at 10 µM [20]: 7.8%
inhibition at 10 µM [21]: 5%
inhibition at 10 µM [22]: 2.2%
inhibition at 10 µM [23]: 10%
inhibition at 10 µM [24]: -3.1%
inhibition at 10 µM [25]: 2.8%
inhibition at 10 µM [26]: -4.1%
Compound: O=C(Nc1cc(Cl)ccc1O)c1cccc(S(=O)(=O)N2CCCCC2)c1 [compound 66, BDT001]
